Measurements reported in patent US20240271088A1, “METHOD FOR MAINTAINING AND AMPLIFYING HUMAN PRIMORDIAL GERM CELLS / HUMAN PRIMORDIAL GERM CELL-LIKE CELLS” (KYOTO UNIVERSITY, priority 2020, published 2024).

Assays:
[1] = system: 585B1-868BTAG iPSC-derived PGCLCs; assay: hPGCLC maintenance and expansion culture with added Wnt signal transduction inhibitors; growth curve and enrichment score by FACS; format: cell-based, human; details: control DMSO
Description: FIG. 14A A drawing showing the suppressive effect of Wnt signal transduction inhibitor on PGCLC dedifferentiation. […] Growth curve of BTAG double-positive cells under each condition in 30 day culture (n=3). The average values of the three experiments were plotted and connected with a straight line. The number after the lowercase letter “c” indicates the number of days of culture.
FIG. 14B A drawing showing the suppressive effect of Wnt signal transduction inhibitor on PGCLC dedifferentiation. […] Enrichment score (n=3) under each condition at C10, C20 and C30. The average values were plotted with red diamonds. Using the DMSO-added group as a control group, a multiple comparison test was performed by Dunnet method. *:p<0.1, **:p<0.05 […]
Further detailed analysis of the FACS analysis results of 585B1-868BTAG (BLIMP1-tdTomato and AP2γ-EGFP) iPS cell-derived proliferated human PGCLC was performed. In the FACS analysis, the expression of the human cell-specific cell surface antigen TRA-1-85 in the population excluding dead cells by DRAQ7 staining was analyzed. […]
Proliferation culture was performed using 585B1-868BTAG iPSC-derived PGCLCs on day 6 of differentiation induction. […] Cells were passaged and counted by FACS every 10 days to draw a proliferation curve. In addition, an enrichment score was calculated at respective culture day numbers.

[2] = system: BT+AG+ hPGCLC (d6 hPGCLCs from 585B1 BTAG hiPSC); assay: hPGCLC expansion culture on m220 feeders with combinations of chemical substances and cytokines; BT+AG+ cells counted by FACS; format: cell-based, human; details: 10 days of culture, GMEM, 15% KSR, 2.5% FBS, 100 ng/ml SCF, forskolin 10 μM, rolipram 10 μM, cyclosporin A 5 μM, LIF 10 ng/ml, EGF 50 ng/ml, bFGF 20 ng/ml
Procedure: FIG. 1B Exploration of conditions for expanding hPGCLC in vitro. (B) (Left) Scheme for exploration of conditions for BT^+AG^+ cell proliferation. (Right) Plot showing the number of BT^+AG^+ cells after 10 days of culture under the indicated conditions determined by FACS analysis. (Blue) Combination of chemical substances [forskolin (10 μM), rolipram (10 μM), and cyclosporin A (5 μM)] used for BT^+AG^+ cell proliferation. (Yellow) Combination of cytokines [LIF (10 ng/ml), EGF (50 ng/ml), and basic fibroblast growth factor (bFGF: 20 ng/ml)] used for BT^+AG^+ cell proliferation. About 5000 hPGCLCs were used as the starting cell population. […] Conditions for mPGCLC expansion: green. Conditions without additional chemical substance/cytokine: gray.
In order to examine the influence of cytokine and/or chemical substances on hPGCLC proliferation, hPGCLC was treated with MMC in GK15 containing 2.5% FBS and 100 ng/mL SCF, and supplemented with cytokine and/or chemical substances [10 ng/mL LIF; 50 ng/mL EGF; 20 ng/mL bFGF; 10 μM forskolin; 10 μM rolipram; 5 μM cyclosporin A (SIGMA, 30024)], and the cells were passaged every 10 days [see the section of Fluorescence activated cell sorting]. On the day of passage, about 5.0×10^3 cells were plated on 24-well plates (0.5 mL of medium containing 10 μM Y27632), and 0.5 mL of medium free of Y27632 was 0.5 mL added the next day. […]

Molecule	appearance of dedifferentiated cells (enrichment score) ([1]; c10, c20, c30, IWR1 at various concentrations, inhibitor comparison at 2.5 μM)	effect on hPGCLC proliferation (growth curve of BTAG double-positive cells) ([1]; various concentrations added to maintenance and expansion medium, 30 days of culture, n=3)	effect on expansion of the number of BT+AG+ cells [2]
O=C(Nc1cccc2cccnc12)c1ccc(N2C(=O)[C@@H]3[C@H](C2=O)[C@@H]2C=C[C@H]3C2)cc1 [IWR1]	significantly suppressed	no effect	–
FGF: basic fibroblast growth factor, 20 ng/ml	–	–	positive effect
